Reference: patent US6972319B1, “Pituitary adenylate cyclase activating peptide (PACAP)receptor 3 (R3) agonists and their pharmacological methods of use” (priority 1999, dated 2005)
No end group written: not given here.

Columns and labels:
PACAP-R2 = target: T1, PACAP-R2 (Homo sapiens, UniProt P32241); assay: Cyclic AMP SPA on CHO cells transfected with PACAP-R2; assay type: cell-based; conditions: cAMP SPA, concentration at which 50% of maximum PACAP27 activity is achieved, NA = no detectable activities, read-out: R2 EC50
T1 construct: expressed in transfected cells; host or cells: CHO cells
T1 sequence (P32241 31-457): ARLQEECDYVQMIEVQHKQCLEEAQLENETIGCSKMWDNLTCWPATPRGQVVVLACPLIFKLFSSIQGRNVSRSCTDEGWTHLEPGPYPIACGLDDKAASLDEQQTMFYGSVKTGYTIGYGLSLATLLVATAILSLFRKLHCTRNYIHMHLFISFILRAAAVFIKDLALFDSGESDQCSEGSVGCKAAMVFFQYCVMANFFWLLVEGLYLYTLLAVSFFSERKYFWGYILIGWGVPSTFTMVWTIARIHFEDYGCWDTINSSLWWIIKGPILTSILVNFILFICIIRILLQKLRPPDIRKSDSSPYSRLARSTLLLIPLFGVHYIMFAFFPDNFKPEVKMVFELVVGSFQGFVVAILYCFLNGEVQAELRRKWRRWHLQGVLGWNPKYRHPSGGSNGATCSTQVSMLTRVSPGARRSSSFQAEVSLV
Procedure: CHO cells expressing the PACAP R3 were plated in 96-well plates (Costar) at 8×10^4 cell/well and grown at 37 C. for 24 hours in α MEM+nucleosides+glutamine (Giobco BRL), 10% FBS, 100 μg/ml Pen/Strep, 0.3 mg/ml glutamine, 1 mM HEPES, 0.5 mg/ml Geneticin (Gibco BRL). The media was removed and the plates were washed with PBS. The cells were incubated with a peptide, in Hepes-PBS-BSA with 0.4 mg/mlSoybean Trypsin Inhibitor, 0.5 mg/ml Bacitracin, 100 uM IBMX, for 15 min at 37 C. Cyclic AMP in the cell extracts was quantitated using the cAMP SPA direct screening assay system (Amersham Pharmacia Biotech Inc, Piscataway, N.J.,). The peptides shown in Table 3 were assayed for cAMP activity.
EC50 is defined as the concentration of the polypeptide at which 50% of maximum PACAP27 activity is achieved. “NA” denotes no detectable activities. “R3 Selectivity” is derived from the ratio of EC50 at R2 versus EC50 at R3.

PACAP-R3 = target: T2, PACAP-R3 (Homo sapiens, UniProt P41587); assay: Cyclic AMP SPA on CHO cells expressing PACAP R3; assay type: cell-based; design: expressed in transfected cells; host or cells: CHO cells (Geneticin selection); conditions: for EC50: cAMP SPA, CHO cells transfected with PACAP-R3, concentration at which 50% of maximum PACAP27 activity is achieved, NA = no detectable activities, read-out: R3 EC50; for R3 Selectivity: ratio of EC50 at R2 versus EC50 at R3
T2 sequence (P41587 24-438): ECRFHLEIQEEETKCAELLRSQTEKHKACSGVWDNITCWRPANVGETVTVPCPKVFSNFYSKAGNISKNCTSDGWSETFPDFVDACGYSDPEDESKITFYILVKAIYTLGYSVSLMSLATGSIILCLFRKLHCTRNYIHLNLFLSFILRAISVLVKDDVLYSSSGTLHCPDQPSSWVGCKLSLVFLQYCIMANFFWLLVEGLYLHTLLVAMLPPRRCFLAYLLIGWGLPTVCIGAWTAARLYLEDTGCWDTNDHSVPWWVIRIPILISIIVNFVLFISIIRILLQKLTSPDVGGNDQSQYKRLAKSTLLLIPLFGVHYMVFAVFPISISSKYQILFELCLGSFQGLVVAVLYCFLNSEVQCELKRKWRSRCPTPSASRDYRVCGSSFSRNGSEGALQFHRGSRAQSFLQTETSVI
Summary of the method: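 Transfected CHO cells grown 24 h were exposed to peptide for 15 min at 37 C in Hepes-PBS-BSA containing 100 uM IBMX, 0.4 mg/ml soybean trypsin inhibitor and 0.5 mg/ml bacitracin. Cellular cAMP was measured by scintillation proximity assay. EC50 is the peptide concentration giving 50% of maximal PACAP27 activity.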

HSDAVFTDNYTRLRKQMAAKKYLNSIKNKI [Peptide R3P160]
EC50 (PACAP-R2): 100 nM
EC50 (PACAP-R3): 0.2 nM
R3 Selectivity (PACAP-R3): 500

H-HSDAVFTDNYTRLRKQMAAKKYLNSIKNKH [Peptide R3P159]
EC50 (PACAP-R2): 200 nM
EC50 (PACAP-R3): 0.5 nM
R3 Selectivity (PACAP-R3): 400

CC[C@H](C)[C@H](NC(=O)[C@H](CO)NC(=O)[C@H](CC(N)=O)NC(=O)[C@H](CC(C)C)NC(=O)[C@H](Cc1ccc(O)cc1)NC(=O)[C@H](CCCCN)NC(=O)[C@H](CCCCN)NC(=O)[C@@H](NC(=O)[C@H](C)NC(=O)[C@H](CCSC)NC(=O)[C@H](CCC(N)=O)NC(=O)[C@H](CCCCN)NC(=O)[C@H](CCCNC(=N)N)NC(=O)[C@H](CC(C)C)NC(=O)[C@H](CCCNC(=N)N)NC(=O)[C@@H](NC(=O)[C@H](Cc1ccc(O)cc1)NC(=O)[C@H](CC(N)=O)NC(=O)[C@H](CC(=O)O)NC(=O)[C@@H](NC(=O)[C@H](Cc1ccccc1)NC(=O)[C@@H](NC(=O)[C@H](C)NC(=O)[C@H](CC(=O)O)NC(=O)[C@H](CO)NC(=O)[C@@H](N)Cc1c[nH]cn1)C(C)C)[C@@H](C)O)[C@@H](C)O)C(C)C)C(=O)N[C@@H](CCCCN)C(=O)N[C@@H](CC(N)=O)C(=O)N[C@@H](CCCCN)C(=O)N[C@@H](CCCNC(=N)N)C(=O)N[C@@H](Cc1ccc(O)cc1)C(=O)O [Peptide R3P59]
EC50 (PACAP-R2): 10 nM
EC50 (PACAP-R3): 0.15 nM
R3 Selectivity (PACAP-R3): 70

HSDAVFTDNYTRLRKQMAAKKYLNSIKNTR [Peptide R3P149]
EC50 (PACAP-R2): 40 nM
EC50 (PACAP-R3): 0.5 nM
R3 Selectivity (PACAP-R3): 80

HSDGIFTDSYSRYRKQMAVKKYLAAVKKYLAAVRHG-NH2 [Peptide R3P17]
EC50 (PACAP-R2): 9 nM
EC50 (PACAP-R3): 4 nM
R3 Selectivity (PACAP-R3): 2

HSDAVFTDNYTRLRKQMAVKKYLNSIKK-NH2 [Peptide R3P8]
EC50 (PACAP-R2): 2 nM
EC50 (PACAP-R3): 1.4 nM
R3 Selectivity (PACAP-R3): 1.5

HSDAVFTDNYTRLRKQMAAKKYLNSIKNGR [Peptide R3P139]
EC50 (PACAP-R2): 20 nM
EC50 (PACAP-R3): 0.4 nM
R3 Selectivity (PACAP-R3): 50

HSDAVFTDNYTRLRKQMAVKKYLNSIKKKR [Peptide R3P57]
EC50 (PACAP-R2): 42 nM
EC50 (PACAP-R3): 0.23 nM
R3 Selectivity (PACAP-R3): 190

HSDAVFTDNYTRLRKQVAAKKYLQSILKKR [Peptide R3P84]
EC50 (PACAP-R2): 2.5 nM
EC50 (PACAP-R3): 0.06 nM
R3 Selectivity (PACAP-R3): 40

HSDGIFTDSYSRYRKQMAVEKYLAAVL-NH2 [PAC20]
EC50 (PACAP-R2): 20 nM
EC50 (PACAP-R3): 0.7 nM
R3 Selectivity (PACAP-R3): 30

H-HSDGIFTDSYSRYRKQMAKKKYLAAVL-NH2 [PAC19]
EC50 (PACAP-R2): 8 nM
EC50 (PACAP-R3): 0.4 nM
R3 Selectivity (PACAP-R3): 20

HSDAVFTDNYTRLRKQMAAKKYLNSIKNNR [Peptide R3P144]
EC50 (PACAP-R2): 300 nM
EC50 (PACAP-R3): 3 nM
R3 Selectivity (PACAP-R3): 100

HSDAVFTDNYTRLRKQLAAKKYLNSIKNGGT [Peptide R3P30]
EC50 (PACAP-R2): 20 nM
EC50 (PACAP-R3): 0.4 nM
R3 Selectivity (PACAP-R3): 50

HSDAVFTDNYTRLRKQMAAKKYLNSIANKR [Peptide R3P116]
EC50 (PACAP-R2): 20 nM
EC50 (PACAP-R3): 1 nM
R3 Selectivity (PACAP-R3): 20

HSDAVFTDNYTRLRKQVAAKKYLQSILKK [Peptide R3P85]
EC50 (PACAP-R2): 5 nM
EC50 (PACAP-R3): 0.18 nM
R3 Selectivity (PACAP-R3): 30

HSDAVFTDNYTRLRKQMAAKKYLNSIKNKV [Peptide R3P169]
EC50 (PACAP-R2): 60 nM
EC50 (PACAP-R3): 0.2 nM
R3 Selectivity (PACAP-R3): 300

HSDAVFTDNYTRLRKQMAAKKYLNSIKNVR [Peptide R3P150]
EC50 (PACAP-R2): 40 nM
EC50 (PACAP-R3): 0.8 nM
R3 Selectivity (PACAP-R3): 50

H-HSDAVFTDNYTRLRKQMAAKKYLNSISNKR [Peptide R3P129]
EC50 (PACAP-R2): 50 nM
EC50 (PACAP-R3): 1 nM
R3 Selectivity (PACAP-R3): 50

HSDAVFTDNYTRLRKQMAGKKYLNSIKNRI [rR3P175]
EC50 (PACAP-R2): 400 nM
EC50 (PACAP-R3): 2.2 nM
R3 Selectivity (PACAP-R3): 180

H-HSDAVFTDNYTRLRKQMAAKKYLNDIKKGGT [Peptide R3P20]
EC50 (PACAP-R2): 330 nM
EC50 (PACAP-R3): 1.4 nM
R3 Selectivity (PACAP-R3): 230

HSDAVFTDNYTRLRKQVAVKKYLQSILKKRY [Peptide R3P87]
EC50 (PACAP-R2): 0.6 nM
EC50 (PACAP-R3): 0.2 nM
R3 Selectivity (PACAP-R3): 3

HSDAVFTDNYTRLRKQMAAKKYLNSIFNKR [Peptide R3P120]
EC50 (PACAP-R2): 10 nM
EC50 (PACAP-R3): 0.2 nM
R3 Selectivity (PACAP-R3): 50
